According to US20130109017A1, “MULTIPLE MYELOMA PROGNOSIS AND TREATMENT” (University of Utah Research Foundation, priority 2010, published 2013):

Experiments:
[1] = system: 5TGM1/C57BL/KaLwRij mouse myeloma model; test: Serum IgG2b level in 5TGM1/C57BL/KaLwRij myeloma mice; settings: bortezomib 1 mg/kg, PTH 80 μg/kg; p=0.017, p=0.029, p=0.017 respectively; FIG. 7
Protocol: A preclinical myeloma model was employed to examine the effects of PTH and bortezomib (velcade) on proteasome activity with respect to bone remodeling and MM pathogenesis. As such, myelomatous C57BL/KaLwRij mice were injected with 5TGM1 multiple myeloma cells as described. […] Briefly, 5TGM1 inoculation cultures were harvested, centrifuged, washed twice in 50 mL phosphate-buffered saline (PBS), and resuspended at 5×10^6 cells per mL of PBS. Experimental mice were injected with 100 μl of inoculation culture via tail vein injection using a 27-gauge needle. Control animals received injections of PBS.
Each experimental group included 5 mice, and one week after 5TGM1 cell injection, bortezomib, PTH, and/or {[TYR^34]bPTH-(7-34)} were administered in various combinations. The following groups, each containing five mice, were analyzed: untreated controls; bortezomib-treated mice; PTH treated mice; PTH and bortezomib treated mice; and 5{[TYR^34]bPTH-(7-34)} and bortezomib treated mice.
In accord with the experimental procedure outline above, bortezomib (velcade), at a concentration of 1 mg/kg, was administered to the mice via intraperitoneal injection alone, or in combination with PTH or the anti-PTH compound, twice a week (FIG. 6). PTH was added in a similar fashion, once-daily, alone, or in combination with bortezomib, at a concentration of 80 μg/kg. […]

[2] = system: 5TGM1/C57BL/KaLwRij mouse myeloma model; test: Overall survival of 5TGM1/C57BL/KaLwRij myeloma mice; assay type: in vivo
Protocol: Blood. 114 Abstract 2865 (2009). […] Control animals received injections of PBS.
In this regard, the anti-PTH compound, {[TYR^34]bPTH-(7-34)}, was also tested in the presence or absence of bortezomib and PTH to determine whether myeloma growth and/or bone formation were affected. Similar experiments were performed using carfilzomib as shown below.
C57BL/KaLwRij mice (n=5) were subcutaneously injected carfilzomib (1.5 mg/kg) twice a week. The anti-PTH compound (500 μg/kg) was also administered to the mice 3 days prior and 1 day prior to carfilzomib treatment, where noted. Tumor burden was monitored by measuring IgG2b serum concentration twice a week.

[3] = system: bortezomib-resistant RPMI 8226 MM cell line; test: IC50 of bortezomib in bortezomib-resistant RPMI 8226 cells; assay type: cell-based; settings: RPMI8226 bortezomib-resistant cells
Protocol: 5TGM1 myeloma cells (Noboru et al., A multiresponse parathyroid hormone assay: an inhibitor has agonist properties in vivo. American Physiological Society. E589-95 (1983)) were initially derived from the myeloma cell line 5T33, which were obtained from C57BL/KaLwRij mice. See Dallas et al., Ibandronate Reduces Osteolytic Lesions but not Tumor Burden in a Murine Model of Myeloma Bone Disease. Blood. 93: 1697-1706 (1999). 5TGM1 cells were grown in Hyclone classical liquid media RPMI 1640 (Thermo Scientific Hyclone, Logan, Utah) supplemented with heat-inactivated fetal bovine serum (Thermo Scientific Hyclone, Logan, Utah) and 1% penicillin-streptomycin solution (GIBCO, Grand Island, N.Y.) at 37° C. in 5% CO2. Additionally, two bortezomib-resistant MM cell lines, RPMI 8226 and ARP1, were generated via a stepwise increase in bortezomib (velcade) concentration.

[4] = system: 5TGM1 myeloma cells; test: 5TGM1 myeloma cell proliferation; assay type: cell-based, mouse; settings: for 5TGM1 cell growth compared to controls: once a day, FIG. 2
Protocol: Blood. 93: 1697-1706 (1999). 5TGM1 cells were grown in Hyclone classical liquid media RPMI 1640 (Thermo Scientific Hyclone, Logan, Utah) supplemented with heat-inactivated fetal bovine serum (Thermo Scientific Hyclone, Logan, Utah) and 1% penicillin-streptomycin solution (GIBCO, Grand Island, N.Y.) at 37° C. in 5% CO2. Additionally, two bortezomib-resistant MM cell lines, RPMI 8226 and ARP1, were generated via a stepwise increase in bortezomib (velcade) concentration.
Initially, 5TGM1 myeloma cells were seeded in 24-well plates (10^5 cells/mL) using RPMI-1640, supplemented with 2% FBS, in the presence or absence of bortezomib (velcade), PTH, and/or {[TYR^34]bPTH-(7-34)}.

## CC(C)C[C@H](NC(=O)[C@H](Cc1ccccc1)NC(=O)c1cnccn1)B(O)O [bortezomib]
[1]
  serum IgG level compared to controls: significant inhibition
[2]; bortezomib 1 mg/kg intraperitoneal twice a week
  increased survival versus control mice: 40%
[2]; bortezomib 1 mg/kg intraperitoneal twice a week, control mice maximum five weeks
  maximum survival: up to seven
[2]; bortezomib 1 mg/kg intraperitoneal twice a week, p=0.044, FIG. 6
  survival compared to controls: prolonged survival
[2]; bortezomib 1 mg/kg, PTH 80 μg/kg, p=0.044 (bortezomib), p=0.047 (bortezomib and PTH)
  survival compared to mice treated with bortezomib and the anti-PTH compound: significantly longer period of time
[3]
  IC50: 250 nM
[4]; bortezomib alone at 5 nM or 10 nM, every other day, p=0.01 at 5 nM, p=0.001 at 10 nM, FIG. 1
  5TGM1 cell proliferation compared to controls: concentration dependent reduction in 5TGM1 cell proliferation

## CC(C)C[C@H](NC(=O)[C@H](CCc1ccccc1)NC(=O)CN1CCOCC1)C(=O)N[C@@H](Cc1ccccc1)C(=O)N[C@@H](CC(C)C)C(=O)[C@@]1(C)CO1 [carfilzomib]
[2]; carfilzomib 1.5 mg/kg subcutaneous twice a week, p=0.012, FIG. 8
  survival compared to controls: increased survival

## {[TYR^34]bPTH-(7-34)} (FMHNLGKHLSSMERVEWLRKKLQDVHNY; Parathyroid hormone; UniProt P01268 38-65, looked up, variant F34Y) [anti-PTH, analog of PTH, antagonist of PTH]
[4]; anti-PTH alone at 100 nM, 500 nM and 1 μM, p=0.1, FIG. 3
  effect on 5TGM1 cell survival: did not have an effect

B1: parathyroid hormone (peptide, UniProt P01270 32-115, looked up)
Parathyroid hormone: SVSEIQLMHNLGKHLNSMERVEWLRKKLQDVHNFVALGAPLAPRDAGSQRPRKKEDNVLVESHEKSLGEADKADVNVLTKAKSQ
modifications: Parathyroid hormone
notes: 84 amino acid polypeptide secreted by the parathyroid glands
[1]
  serum IgG level compared to controls: significant inhibition
[4]; PTH alone 10 nM, p=0.1
  5TGM1 cell growth compared to controls: not a significant difference
[4]; PTH alone 50 nM, p=0.001
  5TGM1 cell growth compared to controls: statistically significant decrease in cell growth
[4]; PTH alone 100 nM, p=0.001
  5TGM1 cell growth compared to controls: statistically significant decrease in cell growth
